Laboratory results taken from patent US20180188224A1, “METHOD FOR CONSTRUCTING A SENSORY SPACE” (CENTRE SCIENTIFIQUE ET TECHNIQUE DU BATIMENT (CSTB), priority 2015, published 2018).
“And” between values parts separate entries of the source, which are not always exact repeats. Identical values can stand only once.

Tests used:
[1] = test system: four non-smoking volunteers (2 men and 2 women); assay: Taste identification questionnaire, trained panel (count of 6 repetitions per subject in which the stimulus was given each taste label; level of recognition %); type: in vivo, human; details: for Level of Recognition %: Neutral / Level of Recognition %: Salty / Level of Recognition %: Sour / Level of Recognition %: Sweet: four subjects
Experimental: (§1) In this test, four non-smoking volunteers (2 men and 2 women) were chosen from 12 people for their performance in taste recognition. Their mean age was 32 years, ranging from 24 to 40 years. […] These four people were trained for several months to recognize and detect the four basic tastes, and also regarding the procedures of sensory and physiological analysis.
(§2) The four basic tastes (sweet, salty, sour and bitter) were used. The solutions were prepared with citric acid for the sour taste, caffeine for the bitter taste, sodium chloride for the salty taste and sucrose for the sweet taste (all purchased from Sigma Aldrich, France) in Evian water. Evian water was also used as control and blank. Each taste was prepared with the four concentrations mentioned in table 1.
(§3) The amount of solution to be tested was standardized at 10 ml. In order to impregnate the whole of the oral cavity, the subjects kept the solution in their mouth for 5 s before swallowing it.
(§4) The sessions were individual and the subjects were asked not to eat or drink anything for at least 1 h before the test. They arrived 15 min before the start of the session in order to acclimatize to the environmental conditions, in particular the temperature of the room (kept constant at 23° C.) and to be resting seated on a comfortable chair. The 16 solutions for testing and two additional samples of water containing solely Evian water, added to the references, were presented monadically following a test order determined from a “balanced incomplete block design”. During a session, 9 samples out of 18 were presented to minimize sensory fatigue. In addition, a sample of Evian was always tested as a “blank” sample in order to avoid the first-order effect (Lawless, H. T. & Heymann, H., 2010, Sensory evaluation of food: Principles and practices. Springer, New York) and was excluded from the analysis. A light signal was sent to give the instruction to test the sample. When the disturbance to the nervous system returned to its baseline level (after approximately 1 min), a second light signal indicated to the subjects that they should complete a questionnaire regarding the stimulus tested previously. The first part of the questionnaire was linked to the identification of the taste (i.e. determining the quality of the taste); the subjects had to choose between five labels: sweet, salty, sour, bitter or neutral. They then had to assign a taste intensity score on an 11-point scale (from 0 “not intense” (i.e. taste of Evian only) to 10 “very intense”) and finally to give a hedonic score on an 11-point scale (from 0 “very unpleasant” to 10 “very pleasant”, 5 being “neutral”).
(§5) This procedure was repeated for each of the 9 stimuli. A session lasted approximately 45 min including a debriefing at the end of the test to ensure understanding of the sense of the signal variations. The experiment was repeated 12 times per subject, meaning that the data are composed of 6 data sets per subject and per product and 12 data sets for the Evian product per subject. Thus, the database consists of 432 samples.

[2] = test system: four non-smoking volunteers (2 men and 2 women); assay: Hedonic score, 11-point scale (0 very unpleasant to 10 very pleasant, 5 neutral); type: in vivo, human; details: each of the NaCl concentrations (one value given)
Experimental: as §1, §2, §3, §4, §5
(§6) The effect of the taste on the hedonic and intensity scores was analyzed by an analysis of variance (ANOVA) including the product effect, the subject effect and the product-subject interaction. The subject effect was fixed because there were only 4 subjects and the results could only be applied to a particular schema. The differences were considered to be significant at a level of 0.05.

[3] = test system: four non-smoking volunteers (2 men and 2 women); assay: Taste intensity score, 11-point scale (0 not intense to 10 very intense); type: in vivo, human; details: concentration 4; averaged over 4 subjects, 6 repetitions each
Experimental: as §1, §2, §3, §4, §5, §6

[4] = cited from earlier work

[Cl-].[Na+] [NaCl, sodium chloride]
Individual recognition score: Neutral ([1]; Subject 1, dilution 1): 0
Individual recognition score: Salty ([1]; Subject 1, dilution 1): 6
Individual recognition score: Sour ([1]; Subject 1, dilution 1): 0
Individual recognition score: Sweet ([1]; Subject 1, dilution 1): 0
Individual recognition score: Neutral ([1]; Subject 1, dilution 2): 0
Individual recognition score: Salty ([1]; Subject 1, dilution 2): 6
Individual recognition score: Sour ([1]; Subject 1, dilution 2): 0
Individual recognition score: Sweet ([1]; Subject 1, dilution 2): 0
Individual recognition score: Neutral ([1]; Subject 1, dilution 3): 0
Individual recognition score: Salty ([1]; Subject 1, dilution 3): 6
Individual recognition score: Sour ([1]; Subject 1, dilution 3): 0
Individual recognition score: Sweet ([1]; Subject 1, dilution 3): 0
Individual recognition score: Neutral ([1]; Subject 1, dilution 4): 0
Individual recognition score: Salty ([1]; Subject 1, dilution 4): 6
Individual recognition score: Sour ([1]; Subject 1, dilution 4): 0
Individual recognition score: Sweet ([1]; Subject 1, dilution 4): 0
Individual recognition score: Neutral ([1]; Subject 2, dilution 1): 0
Individual recognition score: Salty ([1]; Subject 2, dilution 1): 6
Individual recognition score: Sour ([1]; Subject 2, dilution 1): 0
Individual recognition score: Sweet ([1]; Subject 2, dilution 1): 0
Individual recognition score: Neutral ([1]; Subject 2, dilution 2): 0
Individual recognition score: Salty ([1]; Subject 2, dilution 2): 6
Individual recognition score: Sour ([1]; Subject 2, dilution 2): 0
Individual recognition score: Sweet ([1]; Subject 2, dilution 2): 0
Individual recognition score: Neutral ([1]; Subject 2, dilution 3): 0
Individual recognition score: Salty ([1]; Subject 2, dilution 3): 6
Individual recognition score: Sour ([1]; Subject 2, dilution 3): 0
Individual recognition score: Sweet ([1]; Subject 2, dilution 3): 0
Individual recognition score: Neutral ([1]; Subject 2, dilution 4): 0
Individual recognition score: Salty ([1]; Subject 2, dilution 4): 6
Individual recognition score: Sour ([1]; Subject 2, dilution 4): 0
Individual recognition score: Sweet ([1]; Subject 2, dilution 4): 0
Individual recognition score: Neutral ([1]; Subject 3, dilution 1): 0
Individual recognition score: Salty ([1]; Subject 3, dilution 1): 6
Individual recognition score: Sour ([1]; Subject 3, dilution 1): 0
Individual recognition score: Sweet ([1]; Subject 3, dilution 1): 0
Individual recognition score: Neutral ([1]; Subject 3, dilution 2): 0
Individual recognition score: Salty ([1]; Subject 3, dilution 2): 6
Individual recognition score: Sour ([1]; Subject 3, dilution 2): 0
Individual recognition score: Sweet ([1]; Subject 3, dilution 2): 0
Individual recognition score: Neutral ([1]; Subject 3, dilution 3): 0
Individual recognition score: Salty ([1]; Subject 3, dilution 3): 6
Individual recognition score: Sour ([1]; Subject 3, dilution 3): 0
Individual recognition score: Sweet ([1]; Subject 3, dilution 3): 0
Individual recognition score: Neutral ([1]; Subject 3, dilution 4): 0
Individual recognition score: Salty ([1]; Subject 3, dilution 4): 6
Individual recognition score: Sour ([1]; Subject 3, dilution 4): 0
Individual recognition score: Sweet ([1]; Subject 3, dilution 4): 0
Individual recognition score: Neutral ([1]; Subject 4, dilution 1): 0
Individual recognition score: Salty ([1]; Subject 4, dilution 1): 5
Individual recognition score: Sour ([1]; Subject 4, dilution 1): 0
Individual recognition score: Sweet ([1]; Subject 4, dilution 1): 0
Individual recognition score: Neutral ([1]; Subject 4, dilution 2): 0
Individual recognition score: Salty ([1]; Subject 4, dilution 2): 6
Individual recognition score: Sour ([1]; Subject 4, dilution 2): 0
Individual recognition score: Sweet ([1]; Subject 4, dilution 2): 0
Individual recognition score: Neutral ([1]; Subject 4, dilution 3): 0
Individual recognition score: Salty ([1]; Subject 4, dilution 3): 6
Individual recognition score: Sour ([1]; Subject 4, dilution 3): 0
Individual recognition score: Sweet ([1]; Subject 4, dilution 3): 0
Individual recognition score: Neutral ([1]; Subject 4, dilution 4): 0
Individual recognition score: Salty ([1]; Subject 4, dilution 4): 6
Individual recognition score: Sour ([1]; Subject 4, dilution 4): 0
Individual recognition score: Sweet ([1]; Subject 4, dilution 4): 0
Level of Recognition %: Neutral ([1]; dilution 1): 0%
Level of Recognition %: Salty ([1]; dilution 1): 96%
Level of Recognition %: Sour ([1]; dilution 1): 0%
Level of Recognition %: Sweet ([1]; dilution 1): 0%
Level of Recognition %: Neutral ([1]; dilution 2): 0%
Level of Recognition %: Salty ([1]; dilution 2): 100%
Level of Recognition %: Sour ([1]; dilution 2): 0%
Level of Recognition %: Sweet ([1]; dilution 2): 0%
Level of Recognition %: Neutral ([1]; dilution 3): 0%
Level of Recognition %: Salty ([1]; dilution 3): 100%
Level of Recognition %: Sour ([1]; dilution 3): 0%
Level of Recognition %: Sweet ([1]; dilution 3): 0%
Level of Recognition %: Neutral ([1]; dilution 4): 0%
Level of Recognition %: Salty ([1]; dilution 4): 100%
Level of Recognition %: Sour ([1]; dilution 4): 0%
Level of Recognition %: Sweet ([1]; dilution 4): 0%
Individual recognition score: Bitter ([1]; human, in vivo): 0 (15×) and 1
Level of Recognition %: Bitter ([1]; human, in vivo): 4% and 0%
hedonic score [2]: 1.3±0.9
intensity score [3]: 8.6±1.0
detection threshold concentration of the basic taste ([4]; literature (Purves 2005; Robinson 2005)): approximately 10 mmol·l^−1
detection threshold ([4]; representative compound of a primary taste): 0.584 g/L
